The values below come from article PMC3393737 (PLoS ONE, 2012).

For orientation: inhibition means the change of the read-out against control, counted positive when it falls.

The assay deals with T1, ABCB6 (ABCB6-flag) (Homo sapiens, UniProt Q9NP58).
T1 construct: wild-type ABCB6, C-terminal FLAG tag kept; stably expressed (CMV promoter) in K562 cells (whole cells, mitochondria)
T1 sequence (Q9NP58 1-842): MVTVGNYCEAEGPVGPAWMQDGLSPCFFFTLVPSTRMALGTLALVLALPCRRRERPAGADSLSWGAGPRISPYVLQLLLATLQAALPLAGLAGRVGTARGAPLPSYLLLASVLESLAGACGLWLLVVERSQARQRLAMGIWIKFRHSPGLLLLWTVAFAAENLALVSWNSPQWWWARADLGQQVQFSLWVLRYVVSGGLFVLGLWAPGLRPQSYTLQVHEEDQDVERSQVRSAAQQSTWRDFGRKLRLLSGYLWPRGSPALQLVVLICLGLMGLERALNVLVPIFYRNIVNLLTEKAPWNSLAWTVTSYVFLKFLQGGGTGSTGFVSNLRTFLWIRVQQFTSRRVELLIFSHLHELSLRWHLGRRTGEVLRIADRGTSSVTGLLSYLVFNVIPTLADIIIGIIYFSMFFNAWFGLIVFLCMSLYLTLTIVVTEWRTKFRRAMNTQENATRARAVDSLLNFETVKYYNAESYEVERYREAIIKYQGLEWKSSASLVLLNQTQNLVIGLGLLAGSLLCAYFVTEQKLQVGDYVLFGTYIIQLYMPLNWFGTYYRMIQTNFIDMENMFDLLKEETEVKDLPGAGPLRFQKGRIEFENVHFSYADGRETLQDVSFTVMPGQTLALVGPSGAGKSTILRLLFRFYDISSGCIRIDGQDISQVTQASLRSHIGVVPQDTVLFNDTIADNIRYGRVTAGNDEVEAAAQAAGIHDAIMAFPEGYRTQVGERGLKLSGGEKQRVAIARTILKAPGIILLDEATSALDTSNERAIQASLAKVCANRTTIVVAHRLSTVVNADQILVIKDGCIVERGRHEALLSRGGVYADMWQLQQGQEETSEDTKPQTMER
The assay is described as follows: displacement of ABCB6 from hemin-agarose (mitochondrial fraction; dose dependent also with purified ABCB6-flag). In kind it is binding.

Counter-ions that a name gives are not always drawn.

In the case of `C[C@H]1CC[C@]2(NC1)O[C@H]1C[C@H]3[C@@H]4CC[C@H]5C[C@@H](O[C@@H]6O[C@H](CO)[C@H](O[C@@H]7O[C@H](CO)[C@@H](O)[C@H](O[C@@H]8OC[C@@H](O)[C@H](O)[C@H]8O)[C@H]7O[C@@H]7O[C@H](CO)[C@@H](O)[C@H](O)[C@H]7O)[C@H](O)[C@H]6O)CC[C@]5(C)[C@H]4CC[C@]3(C)[C@H]1[C@@H]2C` [THC, tomatine hydrochloride], the inhibition at 5 µM is more than 50%.
